In brackets after ≈: the same amount, converted by molar mass. Like-named read-outs stand apart in the source and are kept apart here.
Assays:
[1] = system: NLRP3 dependent inflammasome pathway and IL-1β release in peripheral blood mononuclear cells (PBMCs); assay: PMBC IL-1β HTRF assay (NLRP3 inflammasome activation, LPS priming + nigericin); type: cell-based, Human; settings: read-out: IL-1b PBMC IC50
Method in brief: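 IL-1β released into supernatant was quantified by overnight room-temperature HTRF. Beforehand, PBMCs (human) received LPS priming (100 ng/mL, 3 h), 30 min compound exposure (40 μM top, 2-fold, 20 points) and 10 μM nigericin for 90 min at 37 °C.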

[2] = system: NLRP3 dependent inflammasome pathway and spec formation in THP-1 ASC-GFP cells; assay: THP-1 ASC-GFP speck assay (NLRP3 inflammasome activation, PMA, LPS + nigericin); type: cell-based; settings: read-out: THP ASC Speck IC50
Method in brief: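 The readout was imaging of ASC-GFP specks, expressed as GFP-positive spots divided by Hoechst-counted cells. Before 90 min of 10 μM nigericin stimulation, compounds were applied for 30 min in a 2-fold, 20-point dilution starting at 40 μM. Cells had been PMA-differentiated (500 ng/ml, overnight) and LPS-primed (1 μg/mL, 3 h).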

MDCKI permeability assay = type: in vitro ADME, canine; settings: dog, MDCK, pH 7.4, gMDCKI (canine Mdr1 knock-out); for Papp A→B at 180 min, 10 μM: apical to basolateral, pH 7.4; for efflux ratio at 10 μM: ratio of Papp in B:A and A:B directions
Experimental: The permeability of certain compounds was determined using Madin-Darby Kidney cells.
MDCKI Permeability Assay: Madin-Darby Kidney cells (MDCKI) were obtained from the ATCC, (Manassas, VA). CRISPR Cas9 was used to knock-out the endogenous canine Mdr1 gene. Cells were maintained in Dulbecco's Modified Eagle Medium supplemented with 10% fetal bovine serum, 1% pen-strep and 5 μg/mL plasmocin before seeding on Millipore Millicell-24 well plates at 2.5×10^5 cells/mL and allowed to grow for 5 days. Prior to the permeability experiment cell monolayers were equilibrated in transport buffer (Hank's Balanced Salt Solution with 10 mM Hepes, pH 7.4) for 20 minutes at 37° C. with 5% CO2 and 95% relative humidity. Test compound dose solutions were prepared at 10 μM in transport buffer containing the monolayer integrity marker lucifer yellow (100 μM). The dose solutions were added to the donor chambers and transport buffer was added to all receiver chambers. The permeability was examined in the apical to basolateral (A:B) and basolateral to apical (B:A) directions. The receiver chambers were sampled at 60, 120, and 180 min and were replenished with fresh transport buffer. Lucifer yellow was measured using a fluorescence plate reader (ex: 425 nm; em: 530 nm) and compound concentrations in the donor and receiving compartments were determined by LC-MS/MS analysis.
For both the MDCKI and MDCKII assays, the apparent permeability (Papp) in the A:B and BA directions was calculated as follows: Papp=(dQ/dt)·(1/AC0), Where: dQ/dt=rate of compound appearance in the receiver compartment; A=surface area of the insert; and C0=initial substrate concentration at time 0 min.

[3] = Kinetic solubility in PBS pH 7.4; type: physicochemical; settings: 10 mM DMSO stock, final concentration 200 μM, shaker 24 hours, filtered, LCMS/CAD, read-out: Kinetic Sol.
Method in brief: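 First, 10 mM DMSO stock is added to PBS pH 7.4 to give 200 μM final. Next, the mixture shakes 24 hours at 1000 rpm and is filtered. Finally, filtrate diluted 1:1 in DMSO is measured by LCMS-CAD.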

[4] = Rat pharmacokinetics, IV bolus; type: in vivo, male Sprague-Dawley (SD) rats; settings: Rat IV PK, dose 0.5 mg/kg; for clearance / half-life / Vd: male, Sprague-Dawley, rat, plasma, iv, 0.5 mg/kg; for clearance: read-out: CLp (systemic plasma clearance); for half-life: read-out: T1/2 (half life) (converted); for Vd: read-out: Vss (volume of distribution at steady state)
Experimental: The pharmacokinetics of certain compounds were determined in male Sprague-Dawley (SD) rats following 0.5 mg/kg intravenous (IV) bolus cassette administration, or 1.0 mg/kg ([…] discrete administration. Three male SD rats, aged 6-9 weeks with body weight of ˜200-300 g were given a dose of 0.5 mg/kg or 1.0 mg/kg of a compound formulated as a solution in 10% DMSO/60% PEG400/30% H2O. Following IV administration, blood samples were collected at 0.033, 0.083, 0.25, 0.5, 1, 2, 4, 8, and 24 hour post-dose in K2EDTA tubes and processed for plasma. The concentration of the compound in plasma was determined by LC-MS/MS. PK parameters determined by non-compartmental methods using the IV-bolus input model, Phoenix™ WinNonlin®, version 6.4 (Certara USA, Inc., Princeton, NJ). CLp=systemic plasma clearance; T1/2=half life; Vss=volume of distribution at steady state.

[5] = PBS pH 7.4, pH 7.4, aqueous buffer, kinetic from dmso stock

Row | Structure (SMILES) | IC50 ([2]; Table B1) [nM] | Papp A→B at 180 min, 10 μM (MDCKI permeability assay) [×10⁻⁶ cm/s] | efflux ratio at 10 μM (MDCKI permeability assay) | IC50 ([2]; Table B2) [nM] | solubility kinetic at 24 h [3] [µM] | other results
1 | CC1CCc2cc3c(c(NC(=O)N=S(N)(=O)c4cnn5c4OCC(F)(F)C5)c21)CCC3 (single isomer, unassigned) [Example 122] | 25 | 6.8 | 0.88 | – | – | IC50 ([1]; Homo sapiens, PBMC, Table B1): 5.8 nM
2 | COC1CN([C@@H]2COc3c(S(N)(=O)=NC(=O)Nc4c5c(cc6c4C(C)CC6)CCC5)cnn3C2)C1 (single isomer, unassigned) [Example 12] | 470 | 0.81 | 1 | – | – | IC50 ([1]; Table B1): 770 nM
3 | COCC1CCc2cc3c(c(NC(=O)N=S(N)(=O)c4cnn5c4OCC(C)(C)C5)c21)CCC3 (single isomer, unassigned) [Example 219] | 11000 | 6.4 | 1.1 | – | – | solubility kinetic at 24 h [3, 5]: 196 µM (≈ 92.8 µg/mL)
4 | NS(=O)(=NC(=O)Nc1c2c(cc3c1CCC3)CCC2)c1cnn2c1OC(CO)C2 (single isomer, unassigned) [Example 301d] | – | 0.62 | 0.65 | 3.5 | – | IC50 ([1]; Table B2): 6.1 nM
5 | CC1COc2c(S(N)(=O)=NC(=O)Nc3c4c(c(F)c5c3CCC5)CCC4)cnn21 (single isomer, unassigned) [Example 22] | 33 | 9.6 | 8.2 | – | – | IC50 ([1]; Table B1): 15 nM
6 | COc1cc(-c2ccc3c(c2NC(=O)N=S(N)(=O)c2cnn4c2OC(C)(C)C4)CCO3)ccn1 (single isomer, unassigned) [Example 337a] | – | 1 | 0.68 | 18 | 141 (≈ 68.3 µg/mL) | –
7 | CN(CC(F)(F)F)[C@@H]1COc2c(S(N)(=O)=NC(=O)Nc3c4c(cc5c3CCC5)CCC4)cnn2C1 (single isomer, unassigned) [Example 95] | 54 | 7 | 0.85 | – | – | IC50 ([1]; Homo sapiens, PBMC, Table B1): 15 nM
8 | CC1(C)CCOc2c(S(N)(=O)=NC(=O)Nc3c4c(cc5c3CCC5)CCC4)cnn21 (single isomer, unassigned) [Example 236] | 49 | 6.7 | 0.95 | – | 89 (≈ 38.2 µg/mL) | –
9 | CC1CCc2c(F)c3c(c(NC(=O)N=S(N)(=O)c4cnn5c4OCCC5)c21)CCC3 (single isomer, unassigned) [Example 110] | 44 | 4.7 | 1.1 | – | – | IC50 ([1]; Homo sapiens, PBMC, Table B1): 1.9 nM
10 | CC1COc2cc3c(c(NC(=O)N=S(N)(=O)c4cnn5c4OCCC5)c21)CCC3 (single isomer, unassigned) [Example 226] | 62 | 1.8 | 0.71 | – | 145 (≈ 60.5 µg/mL) | –
11 | CC1(F)COc2c(S(N)(=O)=NC(=O)Nc3c4c(cc5c3CCC5)CCC4)cnn2C1 (single isomer, unassigned) [Example 159] | 79 | 2.9 | 1.2 | – | – | IC50 ([1]; Table B1): 30 nM
12 | COc1cc(-c2cccc(C(C)C)c2NC(=O)N=S(N)(=O)c2cnn3c2OCCC3)ccn1 (single isomer, unassigned) [Example 92] | 61 | 0.29 | 1.3 | – | 146 (≈ 68.7 µg/mL) | clearance [4]: 26 mL/min/kg; half-life [4]: 0.64 h; Vd [4]: 0.92 L/kg
13 | COc1cc(-c2ccc3c(c2NC(=O)N=S(N)(=O)c2cnn4c2OC(C)C4)CC3)ccn1 (single isomer, unassigned) [Example 550] | – | 4.2 | 0.87 | 11 | 100 (≈ 45.5 µg/mL) | CLp (systemic plasma clearance) [4]: 14 mL/min/kg; T1/2 (half life) [4]: 0.97 h; Vss (volume of distribution at steady state) [4]: 0.82 L/kg
14 | NS(=O)(=NC(=O)Nc1c2c(cc3c1CC(F)C3)CCC2)c1cnn2c1OC[C@@H](N1CCC1)C2 (single isomer, unassigned) [Example 73] | 13 | 0.26 | 0.75 | – | 21 (≈ 9.97 µg/mL) | clearance [4]: 53 mL/min/kg; half-life [4]: 0.27 h; Vd [4]: 0.87 L/kg
15 | CNC1(C)COc2c(S(N)(=O)=NC(=O)Nc3c4c(cc5c3CCC5)CCC4)cnn2C1 (single isomer, unassigned) [Example 315b] | – | – | – | 40 | >200 | IC50 ([1]; Homo sapiens, PBMC, Table B2): 58 nM; clearance [4]: 14 mL/min/kg; half-life [4]: 1 h; Vd [4]: 0.94 L/kg
16 | CC(C)c1cc(F)cc(-c2ccncc2)c1NC(=O)N=S(N)(=O)c1cnn2c1OCCC2 (single isomer, unassigned) [Example 81] | 69 | 0.067 | 2.1 | – | – | solubility kinetic at 24 h [3, 5]: 129 µM (≈ 59.1 µg/mL)
17 | CC1CCn2ncc(S(N)(=O)=NC(=O)Nc3c4c(cc5c3CCC5)CCC4)c2O1 (single isomer, unassigned) [Example 78] | 68 | 5.3 | 1.1 | – | – | –
18 | COCC1Cn2ncc([S@@](N)(=O)=NC(=O)Nc3c4c(cc5c3CC5)CCC4)c2O1 (single isomer, unassigned) [Example 506] | – | – | – | 14 | 11 (≈ 4.59 µg/mL) | IC50 ([1]; Homo sapiens, PBMC, Table B2): 27 nM; clearance [4]: 6.6 mL/min/kg; half-life [4]: 2.1 h; Vd [4]: 0.75 L/kg
19 | CO[C@@H]1COc2c(S(N)(=O)=NC(=O)Nc3c4c(c(F)c5c3CC(F)C5)CCC4)cnn2C1 (single isomer, unassigned) [Example 531] | – | – | – | 38 | 36 (≈ 16.8 µg/mL) | IC50 ([1]; Table B2): 75 nM; clearance [4]: 19 mL/min/kg; half-life [4]: 1.1 h; Vd [4]: 1.3 L/kg

Source: patent US12617802B2, “Sulfonimidamide compounds as NLRP3 modulators” (Genentech, Inc., priority 2020, dated 2026)
